According to ChEMBL document CHEMBL1130486, “Novel 5-amino-6-methylquinolone antibacterials: A new class of non-6-fluoroquinolones” (1997):
Values after ≈ are worked out from the molar mass of the structure shown.

Experiments:
Klebsiella aerogenes [1] = experiment: In vitro minimum inhibitory concentration was determined for antibacterial activity against Klebsiella aerogenes 1082E strain.; assay type: functional
Enterobacter cloacae [2] = experiment: In vitro minimum inhibitory concentration was determined for antibacterial activity against Enterobacter cloacae p99 strain.; assay type: functional
Enterococcus faecalis = experiment: In vitro minimum inhibitory concentration was determined for antibacterial activity against […] 29212 strain.; assay type: functional
Staphylococcus aureus [3] = experiment: In vitro minimum inhibitory concentration was determined for antibacterial activity against Staphylococcus aureus 241 strain.; assay type: functional
Bacillus subtilis = experiment: In vitro minimum inhibitory concentration was determined for antibacterial activity against Bacillus subtilis ATCC 6633 strain.; assay type: functional
Salmonella typhimurium = experiment: In vitro minimum inhibitory concentration was determined for antibacterial activity against Salmonella Typhimurium 14028 strain.; assay type: functional, Salmonella enterica subsp. enterica serovar Typhimurium; conditions: Salmonella enterica
[4] = tested on: Acinetobacter calcoaceticus; experiment: In vitro minimum inhibitory concentration was determined for antibacterial activity against Acinetobacter calcoaceticus 15473 strain.; assay type: functional
Staphylococcus aureus [5] = experiment: In vitro minimum inhibitory concentration was determined for antibacterial activity against Staphylococcus aureus giorgio strain.; assay type: functional
Pseudomonas aeruginosa [6] = experiment: In vitro minimum inhibitory concentration was determined for antibacterial activity against Pseudomonas aeruginosa 10145 strain.; assay type: functional
Citrobacter koseri = experiment: In vitro minimum inhibitory concentration was determined for antibacterial activity against Citrobacter diversus 2046E strain.; assay type: functional
Escherichia coli [7] = experiment: In vitro minimum inhibitory concentration was determined for antibacterial activity against Escherichia coli TEM9 2639E strain.; assay type: functional
Enterobacter cloacae [8] = experiment: In vitro minimum inhibitory concentration was determined for antibacterial activity against Enterobacter cloacae 1194E strain.; assay type: functional
Klebsiella aerogenes [9] = experiment: In vitro minimum inhibitory concentration was determined for antibacterial activity against Klebsiella aerogenes 1076E strain.; assay type: functional
Escherichia coli [10] = experiment: In vitro minimum inhibitory concentration was determined for antibacterial activity against Escherichia coli 851E strain.; assay type: functional
Escherichia coli [11] = experiment: In vitro minimum inhibitory concentration was determined for antibacterial activity against Escherichia coli 3190Y strain.; assay type: functional
Staphylococcus aureus [12] = experiment: In vitro minimum inhibitory concentration was determined for antibacterial activity against Staphylococcus aureus 6538p strain.; assay type: functional
Staphylococcus aureus [13] = experiment: In vitro minimum inhibitory concentration was determined for antibacterial activity against Staphylococcus aureus 77 strain.; assay type: functional
Pseudomonas aeruginosa [14] = experiment: In vitro minimum inhibitory concentration was determined for antibacterial activity against Pseudomonas aeruginosa 1012E strain.; assay type: functional
Escherichia coli [15] = experiment: In vitro minimum inhibitory concentration was determined for antibacterial activity against Escherichia coli TEM5 3739E strain.; assay type: functional
[16] = tested on: Staphylococcus epidermidis; experiment: In vitro minimum inhibitory concentration was determined for antibacterial activity against Staphylococcus epidermis 178 strain.; assay type: functional
Micrococcus luteus = experiment: In vitro minimum inhibitory concentration was determined for antibacterial activity against Micrococcus luteus ATCC 9341 strain.; assay type: functional
[17] = tested on: Staphylococcus epidermidis; experiment: In vitro minimum inhibitory concentration was determined for antibacterial activity against Staphylococcus epidermis 887E strain.; assay type: functional
Escherichia coli [18] = experiment: In vitro minimum inhibitory concentration was determined for antibacterial activity against Escherichia coli 10536 strain; assay type: functional

Compound: Cc1c(N2CCNCC2)c(F)c2c(c1N)c(=O)c(C(=O)O)cn2C1CC1
- MIC (Klebsiella aerogenes [1]): 0.031 µg/mL (≈ 0.086 µM)
- MIC (Enterobacter cloacae [2]): ≤ 0.008 µg/mL
- MIC (Enterococcus faecalis): 4 µg/mL (≈ 11.1 µM)
- MIC (Staphylococcus aureus [3]): 16 µg/mL (≈ 44.4 µM)
- MIC (Bacillus subtilis): 0.031 µg/mL (≈ 0.086 µM)
- MIC (Salmonella typhimurium): 0.063 µg/mL (≈ 0.175 µM)
- MIC [4]: 0.13 µg/mL (≈ 0.361 µM)
- MIC (Staphylococcus aureus [5]): 0.25 µg/mL (≈ 0.694 µM)
- MIC (Pseudomonas aeruginosa [6]): 2 µg/mL (≈ 5.55 µM)
- MIC (Citrobacter koseri): 0.063 µg/mL (≈ 0.175 µM)
- MIC (Escherichia coli [7]): 0.031 µg/mL (≈ 0.086 µM)
- MIC (Enterobacter cloacae [8]): 0.063 µg/mL (≈ 0.175 µM)
- MIC (Klebsiella aerogenes [9]): 0.25 µg/mL (≈ 0.694 µM)
- MIC (Escherichia coli [10]): 0.031 µg/mL (≈ 0.086 µM)
- MIC (Escherichia coli [11]): ≤ 0.008 µg/mL
- MIC (Staphylococcus aureus [12]): 0.25 µg/mL (≈ 0.694 µM)
- MIC (Staphylococcus aureus [13]): 0.5 µg/mL (≈ 1.39 µM)
- MIC (Pseudomonas aeruginosa [14]): 1 µg/mL (≈ 2.77 µM)
- MIC (Escherichia coli [15]): 0.5 µg/mL (≈ 1.39 µM)
- MIC [16]: 16 µg/mL (≈ 44.4 µM)
- MIC (Micrococcus luteus): 4 µg/mL (≈ 11.1 µM)
- MIC [17]: 0.13 µg/mL (≈ 0.361 µM)
- MIC (Escherichia coli [18]): ≤ 0.008 µg/mL

Compound: Cc1c(N2CCNC(C)C2)c(F)c2c(c1N)c(=O)c(C(=O)O)cn2C1CC1 (configuration not stated)
- MIC (Klebsiella aerogenes [1]): 0.13 µg/mL (≈ 0.347 µM)
- MIC (Enterobacter cloacae [2]): 0.016 µg/mL (≈ 0.0427 µM)
- MIC (Enterococcus faecalis): 2 µg/mL (≈ 5.34 µM)
- MIC (Staphylococcus aureus [3]): 16 µg/mL (≈ 42.7 µM)
- MIC (Bacillus subtilis): 0.063 µg/mL (≈ 0.168 µM)
- MIC (Salmonella typhimurium): 0.13 µg/mL (≈ 0.347 µM)
- MIC [4]: 0.13 µg/mL (≈ 0.347 µM)
- MIC (Staphylococcus aureus [5]): 0.25 µg/mL (≈ 0.668 µM)
- MIC (Pseudomonas aeruginosa [6]): 2 µg/mL (≈ 5.34 µM)
- MIC (Citrobacter koseri): 0.063 µg/mL (≈ 0.168 µM)
- MIC (Escherichia coli [7]): 0.063 µg/mL (≈ 0.168 µM)
- MIC (Enterobacter cloacae [8]): 0.13 µg/mL (≈ 0.347 µM)
- MIC (Klebsiella aerogenes [9]): 0.25 µg/mL (≈ 0.668 µM)
- MIC (Escherichia coli [10]): 0.063 µg/mL (≈ 0.168 µM)
- MIC (Escherichia coli [11]): 0.016 µg/mL (≈ 0.0427 µM)
- MIC (Staphylococcus aureus [12]): 0.5 µg/mL (≈ 1.34 µM)
- MIC (Staphylococcus aureus [13]): 0.5 µg/mL (≈ 1.34 µM)
- MIC (Pseudomonas aeruginosa [14]): 2 µg/mL (≈ 5.34 µM)
- MIC (Escherichia coli [15]): 0.5 µg/mL (≈ 1.34 µM)
- MIC [16]: 16 µg/mL (≈ 42.7 µM)
- MIC (Micrococcus luteus): 8 µg/mL (≈ 21.4 µM)
- MIC [17]: 0.25 µg/mL (≈ 0.668 µM)
- MIC (Escherichia coli [18]): 0.063 µg/mL (≈ 0.168 µM)

Compound: Cc1c(N2CCC(N)C2)c(F)c2c(c1N)c(=O)c(C(=O)O)cn2C1CC1 (configuration not stated)
- MIC (Klebsiella aerogenes [1]): 0.13 µg/mL (≈ 0.361 µM)
- MIC (Enterobacter cloacae [2]): 0.031 µg/mL (≈ 0.086 µM)
- MIC (Enterococcus faecalis): 8 µg/mL (≈ 22.2 µM)
- MIC (Staphylococcus aureus [3]): 8 µg/mL (≈ 22.2 µM)
- MIC (Bacillus subtilis): 0.063 µg/mL (≈ 0.175 µM)
- MIC (Salmonella typhimurium): 0.25 µg/mL (≈ 0.694 µM)
- MIC [4]: 0.5 µg/mL (≈ 1.39 µM)
- MIC (Staphylococcus aureus [5]): 0.25 µg/mL (≈ 0.694 µM)
- MIC (Pseudomonas aeruginosa [6]): 4 µg/mL (≈ 11.1 µM)
- MIC (Citrobacter koseri): 0.13 µg/mL (≈ 0.361 µM)
- MIC (Escherichia coli [7]): 0.13 µg/mL (≈ 0.361 µM)
- MIC (Enterobacter cloacae [8]): 0.25 µg/mL (≈ 0.694 µM)
- MIC (Klebsiella aerogenes [9]): 0.5 µg/mL (≈ 1.39 µM)
- MIC (Escherichia coli [10]): 0.13 µg/mL (≈ 0.361 µM)
- MIC (Escherichia coli [11]): 0.031 µg/mL (≈ 0.086 µM)
- MIC (Staphylococcus aureus [12]): 0.25 µg/mL (≈ 0.694 µM)
- MIC (Staphylococcus aureus [13]): 0.5 µg/mL (≈ 1.39 µM)
- MIC (Pseudomonas aeruginosa [14]): 1 µg/mL (≈ 2.77 µM)
- MIC (Escherichia coli [15]): 1 µg/mL (≈ 2.77 µM)
- MIC [16]: 16 µg/mL (≈ 44.4 µM)
- MIC (Micrococcus luteus): 8 µg/mL (≈ 22.2 µM)
- MIC [17]: 0.25 µg/mL (≈ 0.694 µM)
- MIC (Escherichia coli [18]): 0.031 µg/mL (≈ 0.086 µM)

Compound: Cc1c(N2CCC(CN)C2)c(F)c2c(c1N)c(=O)c(C(=O)O)cn2C1CC1 (configuration not stated)
- MIC (Klebsiella aerogenes [1]): 0.13 µg/mL (≈ 0.347 µM)
- MIC (Enterobacter cloacae [2]): 0.031 µg/mL (≈ 0.0828 µM)
- MIC (Enterococcus faecalis): 0.25 µg/mL (≈ 0.668 µM)
- MIC (Staphylococcus aureus [3]): 8 µg/mL (≈ 21.4 µM)
- MIC (Bacillus subtilis): 0.016 µg/mL (≈ 0.0427 µM)
- MIC (Salmonella typhimurium): 0.13 µg/mL (≈ 0.347 µM)
- MIC [4]: 0.13 µg/mL (≈ 0.347 µM)
- MIC (Staphylococcus aureus [5]): 0.031 µg/mL (≈ 0.0828 µM)
- MIC (Pseudomonas aeruginosa [6]): 2 µg/mL (≈ 5.34 µM)
- MIC (Citrobacter koseri): 0.13 µg/mL (≈ 0.347 µM)
- MIC (Escherichia coli [7]): 0.13 µg/mL (≈ 0.347 µM)
- MIC (Enterobacter cloacae [8]): 0.031 µg/mL (≈ 0.0828 µM)
- MIC (Klebsiella aerogenes [9]): 0.25 µg/mL (≈ 0.668 µM)
- MIC (Escherichia coli [10]): 0.063 µg/mL (≈ 0.168 µM)
- MIC (Escherichia coli [11]): 0.016 µg/mL (≈ 0.0427 µM)
- MIC (Staphylococcus aureus [12]): 0.031 µg/mL (≈ 0.0828 µM)
- MIC (Staphylococcus aureus [13]): 0.063 µg/mL (≈ 0.168 µM)
- MIC (Pseudomonas aeruginosa [14]): 1 µg/mL (≈ 2.67 µM)
- MIC (Escherichia coli [15]): 0.5 µg/mL (≈ 1.34 µM)
- MIC [16]: 16 µg/mL (≈ 42.7 µM)
- MIC (Micrococcus luteus): 4 µg/mL (≈ 10.7 µM)
- MIC [17]: 0.031 µg/mL (≈ 0.0828 µM)
- MIC (Escherichia coli [18]): 0.031 µg/mL (≈ 0.0828 µM)

Compound: O=C(O)c1cn(C2CC2)c2cc(N3CCNCC3)c(F)cc2c1=O [CIPROFLOXACIN]
- MIC (Klebsiella aerogenes [1]): ≤ 0.008 µg/mL
- MIC (Enterococcus faecalis): 0.5 µg/mL (≈ 1.51 µM)
- MIC (Staphylococcus aureus [3]): 128 µg/mL (≈ 386 µM)
- MIC [4]: 0.25 µg/mL (≈ 0.754 µM)
- MIC (Staphylococcus aureus [5]): 0.25 µg/mL (≈ 0.754 µM)
- MIC (Citrobacter koseri): 0.016 µg/mL (≈ 0.0483 µM)
- MIC (Klebsiella aerogenes [9]): 0.13 µg/mL (≈ 0.392 µM)
- MIC (Escherichia coli [11]): ≤ 0.008 µg/mL
- MIC (Staphylococcus aureus [12]): 0.13 µg/mL (≈ 0.392 µM)
- MIC (Staphylococcus aureus [13]): 0.25 µg/mL (≈ 0.754 µM)
- MIC (Pseudomonas aeruginosa [14]): 0.13 µg/mL (≈ 0.392 µM)
- MIC (Escherichia coli [15]): 0.13 µg/mL (≈ 0.392 µM)
- MIC [16]: 128 µg/mL (≈ 386 µM)
- MIC (Micrococcus luteus): 4 µg/mL (≈ 12.1 µM)
- MIC [17]: 0.13 µg/mL (≈ 0.392 µM)
- MIC (Escherichia coli [18]): ≤ 0.008 µg/mL

Compound: CC1COc2c(N3CCN(C)CC3)c(F)cc3c(=O)c(C(=O)O)cn1c23 (configuration not stated) [OFLOXACIN]
- MIC (Klebsiella aerogenes [1]): 0.13 µg/mL (≈ 0.36 µM)
- MIC (Enterobacter cloacae [2]): 0.031 µg/mL (≈ 0.0858 µM)
- MIC (Enterococcus faecalis): 2 µg/mL (≈ 5.53 µM)
- MIC (Staphylococcus aureus [3]): 64 µg/mL (≈ 177 µM)
- MIC (Bacillus subtilis): 0.063 µg/mL (≈ 0.174 µM)
- MIC (Salmonella typhimurium): 0.13 µg/mL (≈ 0.36 µM)
- MIC [4]: 0.25 µg/mL (≈ 0.692 µM)
- MIC (Staphylococcus aureus [5]): 0.5 µg/mL (≈ 1.38 µM)
- MIC (Citrobacter koseri): 0.13 µg/mL (≈ 0.36 µM)
- MIC (Escherichia coli [7]): 0.063 µg/mL (≈ 0.174 µM)
- MIC (Enterobacter cloacae [8]): 0.13 µg/mL (≈ 0.36 µM)
- MIC (Klebsiella aerogenes [9]): 0.25 µg/mL (≈ 0.692 µM)
- MIC (Escherichia coli [10]): 0.063 µg/mL (≈ 0.174 µM)
- MIC (Staphylococcus aureus [12]): 0.5 µg/mL (≈ 1.38 µM)
- MIC (Staphylococcus aureus [13]): 0.25 µg/mL (≈ 0.692 µM)
- MIC [16]: 32 µg/mL (≈ 88.6 µM)
- MIC (Micrococcus luteus): 2 µg/mL (≈ 5.53 µM)
- MIC [17]: 0.25 µg/mL (≈ 0.692 µM)
- MIC (Escherichia coli [18]): 0.031 µg/mL (≈ 0.0858 µM)
